Paper PMC2749490 (Bioorganic & medicinal chemistry, 2009)
Where two headings read alike, the source gives them in different places. One block for each molecule: values may come before it. *1 amine or outer side, *2 acyl side, *3 side chain or, on linkers, in order; H or OH if unused. Where a SMILES comes first, the peptide text is derived from it. Bridges are numbered along the chain shown (N, C = ends). Where no end group is shown, it is not given here. [ ]: non-standard residue; d: D form. The star is where a group is joined. Staurosporine = CO[C@@H]1[C@H](N(C)*)C[C@H]2O[C@]1(C)n1c3ccccc3c3c4c(c5c6ccccc6n2c5c31)C(=O)NC4; Suc = O=C(CCC(=O)[*:2])[*:1]; Dap = NC[C@H](N)C(=O)O; βAla = NCCC(=O)O

How the values were obtained:
[1] = biological target: T1, cAMP-dependent protein kinase (PKA) (Homo sapiens, UniProt P17612); conditions: earlier proof-of-principle studies; cited from earlier work
[2] = biological target: T1, cAMP-dependent protein kinase (PKA); assay: PKA inhibitor IC50 determination; type: biochemical
PKA [3] = biological target: T2, PKA (Homo sapiens, UniProt P17612); assay: PKA kinase assays in the presence of 7.5 mM DTT; type: biochemical
PKA [4] = biological target: T2, PKA; type: biochemical; conditions: versus Kemptide

Molecule: cyclo(CTFRVFGC)G [1b]
IC50 [1]: 57 µM

Molecule: CC(C)[C@@H]1NC(=O)[C@H](CCCNC(=N)N)NC(=O)[C@H](Cc2ccccc2)NC(=O)[C@H]([C@@H](C)O)NC(=O)[C@@H](NC(=O)CCNC(=O)CCNC(=O)CCNC(=O)CCNC(=O)CCNC(=O)CCNC(=O)CCNC(=O)[C@H]2O[C@@H](n3cnc4c(N)ncnc43)[C@H](O)[C@@H]2O)CSSC[C@@H](C(=O)NCC(N)=O)NC(=O)CNC(=O)[C@H](Cc2ccccc2)NC1=O [compound 6] (HELM PEPTIDE1{[Nc1ncnc2c1ncn2[C@@H]1O[C@H](C(=O)[*:2])[C@@H](O)[C@H]1O].[bAla].[bAla].[bAla].[bAla].[bAla].[bAla].[bAla].C.T.F.R.V.F.G.C.G.[am]}$PEPTIDE1,PEPTIDE1,9:R3-16:R3$$$V2.0)
improvement from the adenosine derivative 6a ([2]; ratio of PKA IC50 values): > 300 fold

Molecule: CO[C@@H]1[C@H](N(C)C(=O)CCC(=O)NCCC(=O)NCCC(=O)NCCC(=O)NCCC(=O)NCCC(=O)NCCC(=O)NCCC(=O)N[C@H]2CC(=O)NC[C@@H](C(=O)NCC(N)=O)NC(=O)CNC(=O)[C@H](Cc3ccccc3)NC(=O)[C@H](C(C)C)NC(=O)[C@H](CCCNC(=N)N)NC(=O)[C@H](Cc3ccccc3)NC(=O)[C@H]([C@@H](C)O)NC2=O)C[C@H]2O[C@]1(C)n1c3ccccc3c3c4c(c5c6ccccc6n2c5c31)C(=O)NC4 [compound 7] ({Staurosporine-Suc-βAla-βAla-βAla-βAla-βAla-βAla-βAla}-DTFRVFG[Dap]G-NH2; lactam 1-8)
sensitivity to reducing conditions (PKA [3]): insensitive to reducing conditions

mode of inhibition with respect to peptide substrate (best-fit model) (PKA [4]): noncompetitive
Molecule: cyclo(CTFRVFGC)G (CTFRVFGCG; disulfide 1-8 (inferred)) [1b]

IC50 [2]: > 1000 µM
Molecule: Nc1ncnc2c1ncn2[C@@H]1O[C@H](C(=O)O)[C@@H](O)[C@H]1O [6a]
